US7064190B1, “Antigen-specific, activated T lymphocytes, detection and use” (Roche Diagnostics GmbH, priority 1994, dated 2006)

Experiments:
Assay type in all cases: cell-based, human
T cell line 6/10 [1] = assay: Proliferation test with variants of the peptide 5G1 using the T cell line 6/10; conditions: for Stimulation index: TCL 6/10, variants of peptide 5G1
Procedure: In order to elucidate the core structure of the stimulating peptide 5G1, proliferation tests were carried out with various variants of this peptide using the T cell line 6/10 (see Table 4).
A test with a first series of 20 mer variants is intended to ascertain whether amino acids which border on the 5G1 structure at the C- or N-terminus play a role in the recognition by the T cell line 6/10. […] A 6 amino acid shift towards the N-terminus leads to a loss in stimulation capacity.
A test with a second series of peptide variants examines the influence of a shortening at the C-terminus.
The object of a test with a third series of peptide variants was to define the N-terminus of the minimum stimulation-active peptide. If the amino acids leucine (L) and proline (P) are removed from a 18 mer with an intact C-terminus, this leads to a strong decrease of the stimulation index. The N-terminus is thus defined by L and P. If the […] is shortened further by H and F this also leads to a loss of stimulation activity.

T cell line 6/7 [2] = assay: Proliferation test with peptides derived from the H-GAD sequence, T cell line 6/7; conditions: 10 μg/ml individual peptides from pools 7 and 11, FIG. 5
Procedure: (§1) Autologous PBLs or PBLs of a normal donor which are identical with regard to the HLA class II antigens are used as stimulator cells. The PBLs are pre-incubated with antigen as described in paragraph 2, irradiated with 4000 rad and distributed in 96 well plates (100 000 cells/well).
(§2) After 3–4 days at 37° C./7% CO2, 1 μCi ^3H-thymidine is added and incubated for a further 16–20 hours. Afterwards the cells are transferred onto a glass fibre filter by means of a cell harvester instrument and the incorporated radioactivity is determined in a β counter.
(§3) T cell lines that had been expanded by means of at least 4 restimulation cycles and which reacted with SW-GAD in the proliferation test were additionally tested with overlapping peptides of H-GAD. The object of these experiments is to define the epitopes of H-GAD that are recognized by the T cells. For this, overlapping 20 mer peptides of H-GAD are firstly synthesized (overlapping region 10 amino acids, total of 59 different peptides).
(§4) […] The further treatment of these stimulator cells is carried out as described in section 3a.
(§5) Subsequently 6000–20,000 T cells are added per microculture well. The further procedure is analogous to that described in section 3b.

T cell line 6/10 [3] = assay: Proliferation test with peptides derived from the H-GAD sequence, T cell line 6/10; conditions: 10 μg/ml individual peptides from pools 7 and 11, FIG. 6
Procedure: as §1, §2, §3, §4, §5

T cell line 6/7 [4] = assay: T cell proliferation with peptides using PBLs of various haplotypes as antigen-presenting cells, TCL 6/7; conditions: for SI (stimulation index): TCL 6/7
Procedure: (§6) The experimental procedure is analogous to example 1.3. […] The proliferation tests were carried out using the autoantigenic peptides 5G1 (corresponding to amino acids 266–285 of human GAD65) and 5F3 (corresponding to amino acids 306–325 of human GAD65).
(§7) T cell proliferation after stimulation with the peptides 5G1 and 5F3 using PBLs with various haplotypes as antigen-presenting cells

T cell line 6/10 [5] = assay: T cell proliferation with peptides using PBLs of various haplotypes as antigen-presenting cells, TCL 6/10; conditions: for proliferation in the presence of the DR B1 allele 0401: T cell line 6/10; for SI (stimulation index): TCL 6/10
Procedure: as §6, §7

T cell line 6/7 [6] = assay: Proliferation test with SW-GAD, T cell line 6/7; conditions: stimulator PBLs pulsed with SW-GAD
Procedure: (§8) The first restimulation is carried out on the 14th day after the beginning of the primary stimulation. For this, in comparison to the primary stimulation, double the number of autologous PBLs is isolated by means of Ficoll and adjusted in culture medium to a cell concentration of 2×10^6/ml. One half of these stimulator cells is incubated for 2 hours/37° C./7% CO2 with the antigen SW-GAD (final concentration 5 μg/ml) (antigen pulse). The other half is incubated under the same conditions without antigen and only with culture medium. Subsequently all stimulator cells are irradiated with 4000 rad. The stimulator cells are then distributed (100 000 cells/well) in 96 well round-bottom plates in such a way that a well with stimulator cells containing antigen is always adjacent to a well with stimulator cells without antigen.
(§9) All tests are carried out in at least duplicate preparations.
(§10) Autologous PBLs or PBLs of a normal donor which are identical with regard to the HLA class II antigens are used as stimulator cells. […]
as §2

T cell line 6/10 [7] = assay: Proliferation test with SW-GAD, T cell line 6/10; conditions: stimulator PBLs pulsed with SW-GAD
Procedure: as §8, §9, §10, §2

[8] = APC donor four (DR B1 0301/0401)
[9] = APC donor one (DR B1 1302/0401)
[10] = APC donor three (DR B1 0301/0404)
[11] = APC donor two (DR B1 0101/1601)

## AALPRLIAFTSEHSHF [SEQ ID NO:10]
T cell line 6/10 [1]
  Stimulation index: 2.9

## ERGKMIPSDLERRILEAKQK (ERGKMIPSDLERRILEAKQK) [5F3, corresponding to amino acids 306–325 of human GAD 65]
T cell line 6/7 [2]
  proliferation with individual peptides: smaller but significant proliferation
T cell line 6/10 [3]
  proliferation with individual peptides: smaller but significant proliferation
T cell line 6/7 [4]; T cell line 6/7
  proliferation in the presence of the DR B1 allele 0401: proliferation in the presence of the DR B1 allele 0401 is found
T cell line 6/7 [4]; APC donor 19 (DR B1 0301/0401)
  SI (stimulation index): 3.1
T cell line 6/7 [4]; [8]
  SI (stimulation index): 3.8
T cell line 6/7 [4]; [9]
  SI (stimulation index): 7.0
T cell line 6/7 [4]; [10]
  SI (stimulation index): 0.6
T cell line 6/7 [4]; [11]
  SI (stimulation index): 1.2
T cell line 6/10 [5]
  proliferation in the presence of the DR B1 allele 0401: proliferates
T cell line 6/10 [5]; APC donor 19 (DR B1 0301/0401)
  SI (stimulation index): 2.8
T cell line 6/10 [5]; [8]
  SI (stimulation index): 3.8
T cell line 6/10 [5]; [9]
  SI (stimulation index): 6.5
T cell line 6/10 [5]; [10]
  SI (stimulation index): 1.5
T cell line 6/10 [5]; [11]
  SI (stimulation index): 1.4

## AALPRLIAFTSEHSHFSL [SEQ ID NO:9]
T cell line 6/10 [1]
  Stimulation index: 4.5

## LPRLIAFTSEHS [SEQ ID NO:18]
T cell line 6/10 [1]
  Stimulation index: 0.4

## AALPRLIAFTSEHS [SEQ ID NO:11]
T cell line 6/10 [1]
  Stimulation index: 0.7

## LPRLIAFTSEHSHF [SEQ ID NO:17]
T cell line 6/10 [1]; T cell line 6/10
  stimulation capacity of 5G1 variants: minimum peptide that can still stimulate
T cell line 6/10 [1]
  Stimulation index: 4.6

## RLIAFTSEHSHFSLKKGAAA [SEQ ID NO:7]
T cell line 6/10 [1]
  Stimulation index: 3.2

## AALPRLIAFTSE [SEQ ID NO:12]
T cell line 6/10 [1]
  Stimulation index: 0.6

## PEVKEKGMAALPRLIAFTSE [SEQ ID NO:8]
T cell line 6/10 [1]
  Stimulation index: 0.6

## RLIAFTSEHSHFSL [SEQ ID NO:16]
T cell line 6/10 [1]
  Stimulation index: 1.4

## ALPRLIAFTSEHSHFSLKKG [SEQ ID NO:6]
T cell line 6/10 [1]
  Stimulation index: 3.0

## GMAALPRLIAFTSE [SEQ ID NO:13]
T cell line 6/10 [1]
  Stimulation index: 0.8

## GMAALPRLIAFT [SEQ ID NO:14]
T cell line 6/10 [1]
  Stimulation index: 1.0

## GMAALPRLIAFTSEHSHFSLKKGAA (GMAALPRLIAFTSEHSHFSLKKGAA) [amino acid sequence (I), amino acid residues 266–290 of the human GAD 65]
T cell line 6/7 [4]; T cell line 6/7
  proliferation in the presence of the DR B1 allele 0401 and 0101 or/and 1601: proliferates
T cell line 6/10 [5]
  proliferation in the presence of the DR B1 allele 0401: proliferates

## GMAALPRLIAFTSEHSHFSL [5G1, corresponding to amino acids 266–285 of human GAD 65]
T cell line 6/7 [2]
  proliferation with individual peptides: significant proliferation
T cell line 6/10 [3]
  proliferation with individual peptides: significant proliferation
T cell line 6/7 [4]; T cell line 6/7
  recognition in association with the alleles DR B1 0101 or/and 1601: recognizes
T cell line 6/7 [4]; APC donor 19 (DR B1 0301/0401)
  SI (stimulation index): 45.7
T cell line 6/7 [4]; [8]
  SI (stimulation index): 55.0
T cell line 6/7 [4]; [9]
  SI (stimulation index): 67.8
T cell line 6/7 [4]; [10]
  SI (stimulation index): 0.9
T cell line 6/7 [4]; [11]
  SI (stimulation index): 28.6
T cell line 6/10 [5]; APC donor 19 (DR B1 0301/0401)
  SI (stimulation index): 8.5
T cell line 6/10 [5]; [8]
  SI (stimulation index): 6.0
T cell line 6/10 [5]; [9]
  SI (stimulation index): 22.6
T cell line 6/10 [5]; [10]
  SI (stimulation index): 1.5
T cell line 6/10 [5]; [11]
  SI (stimulation index): 2.2
T cell line 6/10 [1]
  Stimulation index: 5.4

## LPRLIAFTSEHSHFSLKK [SEQ ID NO:15]
T cell line 6/10 [1]
  Stimulation index: 3.2

B1: SW-GAD: porcine GAD (glutamic acid decarboxylase from pig brain) used as antigen (protein)
chain: MASSTPSSSATSSNAGPDPNTTNLRPTTYDTWCGVAHGCTRKLGLKICGFLQRTNSLEEKSRLVSAFKERQSSKNLLSCENSDRDGRFRRTETDFSNLFARDLLPAKNGEEQTVQFLLEVVDILLNYVRKTFDRSTKVLDFHHPHQLLEGMEGFNLELSDHPESLEQILVDCRDTLKYGVRTGHPRFFNQLSTGLDIIGLAGEWLTSTANTNMFTYEIAPVFVLMEQITLKKMREIVGWSNKDGDGIFSPGGAISNMYSIMAARYKYFPEVKTKGMAAVPKLVLFTSEHSHYSIKKAGAALGFGTDNVILIKCNERGKIIPADLEAKILEAKQKGYIPLYVNATAGTTVYGAFDPIQEIADICEKYNLWLHVDAAWGGGLLMSRKHRHKLSGIERADSVTWNPHKMMGVLLQCSAILVKEKGILQGCNQMCAGYLFQPDKQYDVSYDTGDKAIQCGRHVDIFKFWLMWKAKGTVGFENQINKCLELAEYLYAKIKNREEFEMVFDGEPEHTNVCFWYIPQSLRGVPDSPERREKLHRVAPKIKALMMESGTTMVGYQPQGDKANFFRMVISNPAATQSDIDFLIEEIERLGQDL
T cell line 6/7 [6]
  cpm SW-GAD (3H-thymidine incorporation): 9373 cpm
T cell line 6/10 [7]
  cpm SW-GAD (3H-thymidine incorporation): 5222 cpm
